Experimental data from publication PMC12454493, “Insight on novel sulfamoylphenyl pyrazole derivatives as anticancer carbonic anhydrase inhibitors” (Molecular Diversity, 2024).

Columns and labels:
CCRF-CEM = test: NCI-60 one-dose SRB screen (Leukemia); format: cell-based; conditions: Homo sapiens, single dose 10 µM, 48 h, read-out: Growth inhibition percent (GI %)
A549/ATCC = test: NCI-60 one-dose SRB screen (Non-Small Cell Lung Cancer); format: cell-based; conditions: Homo sapiens, single dose 10 µM, 48 h, read-out: Growth inhibition percent (GI %)
EKVX = test: as above; format: cell-based; conditions: Homo sapiens, single dose 10 µM, 48 h, read-out: Growth inhibition percent (GI %)
HOP-62 = test: as above; format: cell-based; conditions: Homo sapiens, single dose 10 µM, 48 h, read-out: Growth inhibition percent (GI %)
HOP-92 = test: as above; format: cell-based; conditions: Homo sapiens, single dose 10 µM, 48 h, read-out: Growth inhibition percent (GI %)
NCI-H226 = test: as above; format: cell-based; conditions: Homo sapiens, single dose 10 µM, 48 h, read-out: Growth inhibition percent (GI %)
NCI-H23 = test: as above; format: cell-based; conditions: Homo sapiens, single dose 10 µM, 48 h, read-out: Growth inhibition percent (GI %)
NCI-H322M = test: as above; format: cell-based; conditions: Homo sapiens, single dose 10 µM, 48 h, read-out: Growth inhibition percent (GI %)
NCI-H460 = test: as above; format: cell-based; conditions: Homo sapiens, single dose 10 µM, 48 h, read-out: Growth inhibition percent (GI %)
NCI-H522 = test: as above; format: cell-based; conditions: Homo sapiens, single dose 10 µM, 48 h, read-out: Growth inhibition percent (GI %)
COLO 205 = test: NCI-60 one-dose SRB screen (Colon Cancer); format: cell-based; conditions: Homo sapiens, single dose 10 µM, 48 h, read-out: Growth inhibition percent (GI %)
HCC-2998 = test: NCI-60 one-dose SRB screen (Colon Cancer); format: cell-based; conditions: Homo sapiens, single dose 10 µM, 48 h, read-out: Growth inhibition percent (GI %)
HCT-116 = test: NCI-60 one-dose SRB screen (Colon Cancer); format: cell-based; conditions: Homo sapiens, single dose 10 µM, 48 h, read-out: Growth inhibition percent (GI %)
HCT-15 = test: NCI-60 one-dose SRB screen (Colon Cancer); format: cell-based; conditions: Homo sapiens, single dose 10 µM, 48 h, read-out: Growth inhibition percent (GI %)
HT29 = test: NCI-60 one-dose SRB screen (Colon Cancer); format: cell-based; conditions: Homo sapiens, HT-29, single dose 10 µM, 48 h, read-out: Growth inhibition percent (GI %)
KM12 = test: NCI-60 one-dose SRB screen (Colon Cancer); format: cell-based; conditions: Homo sapiens, single dose 10 µM, 48 h, read-out: Growth inhibition percent (GI %)
SW-620 = test: NCI-60 one-dose SRB screen (Colon Cancer); format: cell-based; conditions: Homo sapiens, single dose 10 µM, 48 h, read-out: Growth inhibition percent (GI %)
SF-268 = test: NCI-60 one-dose SRB screen (CNS Cancer); format: cell-based; conditions: Homo sapiens, single dose 10 µM, 48 h, read-out: Growth inhibition percent (GI %)
SF-295 = test: NCI-60 one-dose SRB screen (CNS Cancer); format: cell-based; conditions: Homo sapiens, single dose 10 µM, 48 h, read-out: Growth inhibition percent (GI %)
SF-539 = test: NCI-60 one-dose SRB screen (CNS Cancer); format: cell-based; conditions: Homo sapiens, single dose 10 µM, 48 h, read-out: Growth inhibition percent (GI %)
SNB-19 = test: NCI-60 one-dose SRB screen (CNS Cancer); format: cell-based; conditions: Homo sapiens, single dose 10 µM, 48 h, read-out: Growth inhibition percent (GI %)
SNB-75 = test: NCI-60 one-dose SRB screen (CNS Cancer); format: cell-based; conditions: Homo sapiens, single dose 10 µM, 48 h, read-out: Growth inhibition percent (GI %)
U251 = test: NCI-60 one-dose SRB screen (CNS Cancer); format: cell-based; conditions: Homo sapiens, U-251, single dose 10 µM, 48 h, read-out: Growth inhibition percent (GI %)
LOX IMVI = test: NCI-60 one-dose SRB screen (Melanoma); format: cell-based; conditions: Homo sapiens, single dose 10 µM, 48 h, read-out: Growth inhibition percent (GI %)
M14 = test: NCI-60 one-dose SRB screen (Melanoma); format: cell-based; conditions: Homo sapiens, single dose 10 µM, 48 h, read-out: Growth inhibition percent (GI %)
MALME-3M = test: NCI-60 one-dose SRB screen (Melanoma); format: cell-based; conditions: Homo sapiens, single dose 10 µM, 48 h, read-out: Growth inhibition percent (GI %)
MDA-MB-435 = test: NCI-60 one-dose SRB screen (Melanoma); format: cell-based; conditions: Homo sapiens, single dose 10 µM, 48 h, read-out: Growth inhibition percent (GI %)
SK-MEL-28 = test: NCI-60 one-dose SRB screen (Melanoma); format: cell-based; conditions: Homo sapiens, single dose 10 µM, 48 h, read-out: Growth inhibition percent (GI %)
SK-MEL-2 = test: NCI-60 one-dose SRB screen (Melanoma); format: cell-based; conditions: Homo sapiens, single dose 10 µM, 48 h, read-out: Growth inhibition percent (GI %)
SK-MEL-5 = test: NCI-60 one-dose SRB screen (Melanoma); format: cell-based; conditions: Homo sapiens, single dose 10 µM, 48 h, read-out: Growth inhibition percent (GI %)
UACC-257 = test: NCI-60 one-dose SRB screen (Melanoma); format: cell-based; conditions: Homo sapiens, single dose 10 µM, 48 h, read-out: Growth inhibition percent (GI %)
UACC-62 = test: NCI-60 one-dose SRB screen (Melanoma); format: cell-based; conditions: Homo sapiens, single dose 10 µM, 48 h, read-out: Growth inhibition percent (GI %)
786-0 = test: NCI-60 one-dose SRB screen (Renal Cancer); format: cell-based; conditions: Homo sapiens, single dose 10 µM, 48 h, read-out: Growth inhibition percent (GI %)
A498 = test: NCI-60 one-dose SRB screen (Renal Cancer); format: cell-based; conditions: Homo sapiens, single dose 10 µM, 48 h, read-out: Growth inhibition percent (GI %)
ACHN = test: NCI-60 one-dose SRB screen (Renal Cancer); format: cell-based; conditions: Homo sapiens, single dose 10 µM, 48 h, read-out: Growth inhibition percent (GI %)
CAKI-1 = test: NCI-60 one-dose SRB screen (Renal Cancer); format: cell-based; conditions: Homo sapiens, single dose 10 µM, 48 h, read-out: Growth inhibition percent (GI %)
RXF 393 = test: NCI-60 one-dose SRB screen (Renal Cancer); format: cell-based; conditions: Homo sapiens, single dose 10 µM, 48 h, read-out: Growth inhibition percent (GI %)
SN12C = test: NCI-60 one-dose SRB screen (Renal Cancer); format: cell-based; conditions: Homo sapiens, single dose 10 µM, 48 h, read-out: Growth inhibition percent (GI %)
TK-10 = test: NCI-60 one-dose SRB screen (Renal Cancer); format: cell-based; conditions: Homo sapiens, single dose 10 µM, 48 h, read-out: Growth inhibition percent (GI %)
UO-31 = test: NCI-60 one-dose SRB screen (Renal Cancer); format: cell-based; conditions: Homo sapiens, single dose 10 µM, 48 h, read-out: Growth inhibition percent (GI %)
BT-549 = test: NCI-60 one-dose SRB screen (Breast Cancer); format: cell-based; conditions: Homo sapiens, single dose 10 µM, 48 h, read-out: Growth inhibition percent (GI %)
HS 578T = test: NCI-60 one-dose SRB screen (Breast Cancer); format: cell-based; conditions: Homo sapiens, single dose 10 µM, 48 h, read-out: Growth inhibition percent (GI %)
MCF-7 = test: NCI-60 one-dose SRB screen (Breast Cancer); format: cell-based; conditions: Homo sapiens, MCF7, single dose 10 µM, 48 h, read-out: Growth inhibition percent (GI %)
MDA-MB-231/ATCC = test: NCI-60 one-dose SRB screen (Breast Cancer); format: cell-based; conditions: Homo sapiens, single dose 10 µM, 48 h, read-out: Growth inhibition percent (GI %)
MDA-MB-468 = test: NCI-60 one-dose SRB screen (Breast Cancer); format: cell-based; conditions: Homo sapiens, single dose 10 µM, 48 h, read-out: Growth inhibition percent (GI %)
T-47D = test: NCI-60 one-dose SRB screen (Breast Cancer); format: cell-based; conditions: Homo sapiens, T47D, single dose 10 µM, 48 h, read-out: Growth inhibition percent (GI %)
hCA IX = hCA IX (Homo sapiens, UniProt Q16790); test: CA inhibitory activity, spectrophotometric p-NPA assay; format: biochemical
Description: The software used to calculate CA IC50 along with statistical analysis of the results is GraphPad Prism 9.00. Results were estimated by using one-way ANOVA and the Bonferroni’s multiple comparisons posthoc test was performed (P < 0.05) [46]
Carbonic anhydrase inhibitory activity:
The spectrophotometric assay was conducted in HEPES-Tris buffer, NaCl of pH 7.5 (20mM) at 25◦C. Each inhibitory well-consisted of 50 μL of assay buffer solution, 20 μL of hCA enzyme solution (20 ng/μL in Assay Buffer), and 50 μL of test compound in HPLC grade DMSO (maintain 10% of the final concentration). The mixture solution was
Substrate p-nitrophenyl acetate (p-NPA) (0.7mM) was prepared in HPLC grade methanol and the reaction was started by adding 20 μL to a well in a 96-well-plate. The amount of product formed was measured for 30 min continuously at 1 min intervals at 400 nm in a 96-well-plate using xMARK microplate spectrophotometer, Bio-Rad (USA). The activity of the controlled compound was taken as 100%. All experiments were carried out in triplicates of each used concentration, and results are represented as a

CCOC(=O)c1ccc(NC(=O)COC(=O)c2cn(-c3ccc(S(N)(=O)=O)cc3)nc2-c2ccc(S(C)(=O)=O)cc2)cc1 [Compound 5e, 2-[(4-(Ethoxycarbonyl)phenyl)amino]-2-oxoethyl 3-(4-(methylsulfonyl)phenyl)-1-(4-sulfamoylphenyl)-1H-pyrazole-4-carboxylate]
inhibition at 10 µM (CCRF-CEM): 9.47% | inhibition at 10 µM (A549/ATCC): < 5% | inhibition at 10 µM (EKVX): < 5% | inhibition at 10 µM (HOP-62): < 5% | inhibition at 10 µM (HOP-92): < 5% | inhibition at 10 µM (NCI-H226): < 5% | inhibition at 10 µM (NCI-H23): 8.79% | inhibition at 10 µM (NCI-H322M): < 5% | inhibition at 10 µM (NCI-H460): < 5% | inhibition at 10 µM (NCI-H522): 13.5% | inhibition at 10 µM (COLO 205): < 5% | inhibition at 10 µM (HCC-2998): < 5% | inhibition at 10 µM (HCT-116): < 5% | inhibition at 10 µM (HCT-15): < 5% | inhibition at 10 µM (HT29): < 5% | inhibition at 10 µM (KM12): < 5% | inhibition at 10 µM (SW-620): < 5% | inhibition at 10 µM (SF-268): 5.8% | inhibition at 10 µM (SF-295): < 5% | inhibition at 10 µM (SF-539): 11.8% | inhibition at 10 µM (SNB-19): 8.29% | inhibition at 10 µM (SNB-75): 19.6% | inhibition at 10 µM (U251): 5.78% | inhibition at 10 µM (LOX IMVI): 11.6% | inhibition at 10 µM (M14): < 5% | inhibition at 10 µM (MALME-3M): < 5% | inhibition at 10 µM (MDA-MB-435): < 5% | inhibition at 10 µM (SK-MEL-28): < 5% | inhibition at 10 µM (SK-MEL-2): < 5% | inhibition at 10 µM (SK-MEL-5): < 5% | inhibition at 10 µM (UACC-257): < 5% | inhibition at 10 µM (UACC-62): 15.8% | inhibition at 10 µM (786-0): 13.2% | inhibition at 10 µM (A498): 19.7% | inhibition at 10 µM (ACHN): 8.32% | inhibition at 10 µM (CAKI-1): 30.8% | inhibition at 10 µM (RXF 393): < 5% | inhibition at 10 µM (SN12C): 7.85% | inhibition at 10 µM (TK-10): < 5% | inhibition at 10 µM (UO-31): 21.9% | inhibition at 10 µM (BT-549): 18.9% | inhibition at 10 µM (HS 578T): 23.7% | inhibition at 10 µM (MCF-7): 6.56% | inhibition at 10 µM (MDA-MB-231/ATCC): < 5% | inhibition at 10 µM (MDA-MB-468): 20.3% | inhibition at 10 µM (T-47D): 19.1% | Ki (hCA IX): 40 nM | IC50 (hCA IX; p-NPA substrate, pH 7.5, 25 °C, triplicate, read-out: IC50 (µM) ± SD hCA IX): 0.04 ± 0.002 µM
